Source: patent US20050282745A1, “Non-mammalian GnRH analogs and uses thereof in regulation of fertility and pregnancy” (priority 2001, published 2005)
Non-standard residues stand in square brackets, D forms with d. Residues, ends and D or L forms follow the SMILES beside them. pGlu = O=C1CC[C@@H](C(=O)O)N1; azaGly = NNC(=O)O

Tests used:
[1] = system: baboon ovarian enzymatic activity
Description: In these studies the enzyme was in the ovarian extract.
In this assay, following incubation of the enzyme and GnRH, with and without the chosen analog, the reaction was stopped by heating and the remaining GnRH substrate was quantified by radioimmunoassay. The product formed is calculated by subtraction, and its inverse plotted against the inverse of the original substrate concentrations to determine the nature of the competition. The Ki was determined by plotting the inverse of the product formed versus the inhibitor used.

[2] = system: human sperm; experiment: Human sperm motility in vitro; type: cell-based
Description: Normal human sperm ([…]) were obtained with seminal plasma and the motility of the sperm was assessed microscopically. Both the fraction of motile sperm and the forward sperm motion were assessed. These parameters were measured just prior to a 1:5 dilution with phosphate buffered saline containing 0 to 200 nM chicken II GnRH analog (SEQ ID NO: 2). The motility and motion of the sperm were assessed at 2, 30, 60, 90, 120 and 180 minutes after incubation at 37 C. […] By 180 minutes the motility of the control had fallen to that of all the treated sperm.

[3] = system: rhesus monkey; experiment: Contraceptive activity in mated rhesus monkeys, osmotic mini-pump; type: in vivo
Text: In these studies we examined the effect of a stable analog of chicken II GnRH on ovarian steroidogenesis, implantation and maintainence of pregnancy in the rhesus monkey. We administered this chicken II GnRH analog (SEQ ID NO: 2) or saline via osmotic mini-pumps from Day 1-6, Day 6-11 or Day 11-17 to regularly cycling monkeys mated with fertile males around the time of ovulation. Circulating estradiol (E2) and progesterone (P) in the luteal phase was observed as well as cycle length in this and subsequent cycle. Implantation and pregnancy were confirmed by circulating CG and continued progesterone production. […] In animals treated on day 6-11 or days 11-17, no effect on luteinization or cycle length was noted; and two of five (40.0%), and one of three animals (33.3%), respectively, implanted with normal pregnancies resulting.

[4] = system: human granulosa cells receptor; experiment: Human granulosa cell receptor binding
Text: (§1) Due to the limited number of cells it was not possible to precisely define the affinity of this receptor.

[5] = system: human term placental explants; experiment: Static explant culture, release of hCG, progesterone, PGE2; type: cell-based
Text: The biological activity of the newly synthesized non-mammalian GnRH analogs was studied using a static implant culture system. This system allows for inexpensive extended activity studies. Mammalian GnRH action on the human placenta release of hCG, progesterone and prostaglandins were defined using this system. Replicate cultures were studied, thus allowing for comparison of different doses of each non-mammalian GnRH analog to mammalian GnRH (SEQ ID NO: 5), as well as direct competition assays. […] These studies were repeated using different human placentas. Siler-Khodr T M, Khodr G S, Valenzuela G, Rhode J 1986 Gonadotropin-releasing hormone effects on placental hormones during gestation: II. Progesterone, estrone, estradiol and estriol. Biol Reprod 34:255-264; Siler-Khodr T M, Khodr G S, Valenzuela G, Rhode J 1986 Gonadotropin-releasing hormone effects on placental hormones during gestation: 1 Alpha-human chorionic gonadotropin, human chorionic gonadotropin and human chorionic somatomammotropin. Biol Reprod 34:245-254; Siler-Khodr T M, Khodr G S, Valenzuela G, Harper J, Rhode J 1986 GnRH effects on placental hormones during gestation. 111 Prostaglandin E, prostaglandin F, and 13, 14-dihydro-15-keto-prostaglandin F. Biol Reprod 35:312-319.
In these and additional studies, an explant culture system was used to determine the effect of mammalian GnRH (SEQ ID NO: 5), chicken II GnRH (SEQ ID NO: 6), or the D-Arg(6)-chicken II GnRH-aza-Gly(10)-amide analog (SEQ ID NO: 2) on the release of the hCG, progesterone, and prostaglandin E2. Human term placentas were dissected free of membranes, minced into fragments of 5 mm, rinsed in medium, and a total weight of ˜100 mg (20 explants) was placed on a sterile filter paper resting on an organ culture grid such that they touched the surface of the culture medium, but were not immersed in it. The medium contained penicillin, streptomycin, and fungizone at 100 U/mL, 100 μg/mL, and 2.5 μg/mL respectively with and without varying doses of GnRH isoforms or analogs was added to each Petri dish. Triplicate chambers for each media were made and incubated at 37 C in a humidified chamber with an atmosphere of 5% CO2 and 95% air. Spent media were collected and replaced after 2 hours, 24 hours, and 48 hour of culture and stored frozen at −20° C. until assayed for hormones. HCG, progesterone, and PGE2 were measured using specific double antibody procedures as described previously. The chicken II GnRH analog (SEQ ID NO: 2) was studied using four different human term placentas, and the native chicken II GnRH isoform was also studied using one human term placenta. Gibbons J M, Mitnick M, Chieffo V 1975 In vitro biosynthesis, of TSH- and LH-releasing factors by the human placenta. Am J Obstet Gynecol 121:127-131.

[6] = biological target: baboon endometrium (stroma and epithelium) receptor; experiment: Baboon endometrium receptor binding; settings: read-out: receptor affinity
Text: as §1

[7] = biological target: baboon ovary GnRH receptor; experiment: Baboon ovary membrane GnRH receptor binding; settings: baboon ovary membranes; read-out: GnRH receptor affinity
Description: The receptor binding activity of newly synthesized non-mammalian GnRH analogs was studied in ovarian and uterine tissues. […] The ovaries of the three baboons were extracted and the cytosolic and membrane fractions were recovered for the tissues. The membrane fraction from one animal was titred for GnRH receptor binding activity using D-Arg(6)-chicken II GnRH-aza-Gly(10)-amide radiolabeled ligand. Receptors were clearly demonstrable even at 4 μg membrane protein/tube. […] The chicken II GnRH analog (SEQ ID NO: 2) had the highest affinity for any GnRH analog reported to date.

[8] = system: chorionic peptidase-1 (C-ase-1)
Description: Using the incubation system developed for the C-ase-1 activity, the degradation of each analog was tested. […] These studies were done using the C-ase-1 enzyme activity assay as described previously. […] The product formed was calculated by subtraction, and its inverse plotted against the inverse of the original substrate concentrations to determine the nature of the competition. The Ki was to be determined by plotting the inverse of the product that formed verses the inhibitor used.
The concentration of the product of the degraded GnRH was quantified by subtracting the remaining mammalian GnRH from the starting concentrations of mammalian GnRH. […] The Ks for the degradation of mammalian GnRH was calculated from the x axis intercept using Lineweaver-Burke double reciprocal plot of the concentration of the product formed versus the concentration of the substrate used.
The reaction was stopped by heating at 85° C. for 10 minutes. The remaining GnRH was determined using a specific radioimmunoassay. The formation of product, i.e., the N-terminal nonapeptide of GnRH, was calculated by subtraction and its inverse was plotted versus the inverse of the initial substrate to determine the Ks of the reaction. […] The relative potency of each analog was compared.
Using the incubation system developed for the C-ase-1 activity, the degradation of each analog was studied. […] The inverse of the product was plotted against the inverse of the original substrate concentrations to determine Ks of the competition. The Ki was determined by plotting the inverse of the product formed verses the inhibitor used.

- stability compared with mammalian GnRH [1]: more than 50 times
- Ki ([1]; competition with degradation of mammalian GnRH): ≥ 1500 nM
- Kd [6]: ~60 nM
- Kd [7]: 10 nM
- degradation by / competition for C-ase-1, in words [8]: essentially not degraded
Compound: N=C(N)NCCC[C@@H](NC(=O)[C@H](Cc1c[nH]cn1)NC(=O)[C@H](CO)NC(=O)[C@H](Cc1c[nH]c2ccccc12)NC(=O)[C@H](Cc1c[nH]cn1)NC(=O)[C@@H]1CCC(=O)N1)C(=O)N[C@@H](Cc1c[nH]c2ccccc12)C(=O)N[C@@H](Cc1ccc(O)cc1)C(=O)N1CCC[C@H]1C(=O)NNC(N)=O [D-Arg(6)-chicken II GnRH-aza-Gly(10)-amide] ([pGlu]HWSH[dR]WYP[azaGly]-NH2)
- forward motion of remaining motile sperm [2]: maintained a high grade
- time until inhibition of motility ([2]; 2 nM): 30 min
- sperm motility ([2]; 20 to 200 nM): initially inhibited
- pregnancies ([3]; treated Day 1-6): no pregnancies resulted
- effect on progesterone production or cycle length ([3]; treated day 1-6): no significant effect
- animals implanted with normal pregnancies ([3]; treated day 6-11, two of five): 40.0%
- effect on luteinization or cycle length ([3]; treated day 6-11 or days 11-17): no effect
- animals implanted with normal pregnancies ([3]; treated days 11-17, one of three): 33.3%
- receptor binding [4]: receptor binding for the GnRH analog was observed
- progesterone release at higher concentrations [5]: also inhibited
- effect on hCG at higher concentrations ([5]; 1-9 μM): inhibition of hCG
- PGE2 release ([5]; 2 and 24 hours): not significantly changed
- hCG release after 2, 24 and 48 hours of treatment ([5]; P<0.05): significant dose-related inhibition
- stimulation of hCG ([5]; first two hours, lowest concentration 250 nM): as much as a three fold stimulation
- hCG in presence of exogenous GnRH ([5]; three placentas, later studies): inhibition of hCG
